Source: ChEMBL document CHEMBL1126096, “Carbohydrate materials bearing neuraminidase-resistant C-glycosides of sialic acid strongly inhibit the in vitro infectivity of influenza virus” (J Med Chem, 1992)

Columns and labels:
[1] = system: unidentified influenza virus; assay: Potency to inhibit influenza virus (X-31) relative to alpha-C-allyl sialic acid; format: functional
[2] = system: unidentified influenza virus; assay: The compound was evaluated for the inhibition of influenza virus (X-31); format: functional, organism-based

| Compound | Relative potency [1] | IC50 [2] [mM] |
| --- | --- | --- |
| CO[C@]1(C(=O)O)C[C@H](O)[C@@H](NC(C)=O)[C@H]([C@@H](O)[C@H](O)CO)O1 | 2.5 | 4 |
| C=CC[C@@]1(C(=O)O)C[C@H](O)[C@@H](NC(C)=O)[C@H](C(O)C(O)CO)O1 (stereo partly specified) | 1 | 10 |
| C=CC[C@]1(C(=O)O)C[C@H](O)[C@@H](NC(C)=O)[C@H](C(O)C(O)CO)O1 (stereo partly specified) | <0.02 | > 50 |
